The values that follow come from publication PMC9949698, “Visible-Light-Controlled Histone Deacetylase Inhibitors for Targeted Cancer Therapy” (Journal of Medicinal Chemistry, 2023).

One data set has as its target T1, human recombinant HDAC1 (Homo sapiens, UniProt Q13547).
T1 construct: purchased BPS Bioscience
Put plainly: Fluorogenic assay with human recombinant HDAC1, dark or illumination. It is filed as biochemical. On the procedure: To study the inhibition of HDAC enzymes by the compounds, we used a fluorogenic assay with human recombinant HDAC1.[32] The enzyme was incubated with an acetylated substrate and each inhibitor for 1 h at room temperature, under either dark or light conditions. We opted for illumination throughout the incubation period to maintain the maximum proportion of cis under light conditions. […] Then, the deacetylated substrate generated a fluorescent coumarin after incubation of the mixture with trypsin at 37 °C for 20 min.
Stock solutions of the compounds were diluted to 1 mM in DMSO and then heated to 60 or 80 °C to obtain solutions with the maximum amount of the trans isomer (dark). […] The 1 mM solutions were then serially diluted with HDAC buffer to 10 times the desired concentration, maintaining DMSO at 10%.
In control wells without the compound, inhibitor, or enzyme, HDAC buffer was added instead. […] Then, 50 μL of the stop solution was added and the plates were incubated at 37 °C for 20 min in the dark. Fluorescence was measured at a λem of 460 nm and a λex of 380 nm. Enzyme activity is expressed as a percentage with respect to the nontreated cells, after subtracting the blank (well with no enzyme and no compound).

For the next data set, the system named is HeLa cells. As to the kind of experiment: HeLa cell viability, MTS assay, dark or preillumination. The class given is cell-based. As to conditions: for IC50: Homo sapiens, HeLa; for IC50(dark)/IC50(light): Table 5; for viability decreasing to: under illumination. How it is done:
We then proceeded to evaluate the effect of the compounds in a viability assay against HeLa cells.
(§1) HeLa, MCF7, and HT29 cells were maintained in adherent cultures in DMEM supplemented with 10% FBS. KG1 cells were maintained in a suspension culture in IMDM supplemented with 20% FBS.
Stock solutions of the compounds were heated to 60 or 80 °C to obtain solutions with the maximum amount of the trans isomer (dark). […] The solutions were then serially diluted with DMEM to give 20 times the desired final concentration, maintaining DMSO at 10%.
Cells were seeded in 96-well black flat bottom plates with a clear bottom at a density of 5 × 10^3 cells/well (HeLa) or 1 × 10^4 cells/well (MCF7, HT29, and KG1), in a volume of 95 μL.
(§2) Viability of HeLa, MCF7, and […] cells was determined with a CellTiter 96 assay (Promega), according to the manufacturer’s instructions. Briefly, 20 μL of CellTiter 96 reagent was added to each well, the plates were incubated at 37 °C for 2 h, and the absorbance at 490 nm was recorded. Viability is expressed as a percentage with respect to the nontreated cells.
On the technique in general: Formazan colour is commonly taken as a measure of viable cells.

The test system of another data set is HT29 cells. As to the kind of experiment: HT29 cell viability, MTS assay, 50 μM. It is filed as cell-based. As to conditions: 48 h; for effect on viability when preilluminated: preilluminated (380 or 550 nm). How it is done:
(§3) HDACis have been proposed as a potential therapeutic strategy against cancer stem cells (CSCs).[39],[40] We selected three cell lines that have a strong CSC phenotype (HT29,[41],[42] MCF7[43]−[45] and KG1[46]) and tested the best compounds at 50 μM under dark and illumination conditions.
as §1
(§4) Stock solutions of the compounds were heated to 60 or 80 °C to obtain solutions with the maximum amount of the trans isomer (dark). For the “light” solutions, the stock solutions were illuminated with 96-well LED array plates for 3 min at the maximum potency. The solutions were then serially diluted with DMEM to give 20 times the desired final concentration, maintaining DMSO at 10%.
(§5) Cells were seeded in 96-well black flat bottom plates with a clear bottom at a density of 5 × 10^3 cells/well (HeLa) or 1 × 10^4 cells/well (MCF7, HT29, and KG1), in a volume of 95 μL. After 24 h, 5 μL of compound solutions (20×) were added. Cells were incubated for 48 h.
as §2

The next data set concerns MCF7 cells. As to the kind of experiment: MCF7 cell viability, MTS assay, 50 μM. The class given is cell-based. Particulars: 48 h; for effect on viability when preilluminated: preilluminated (380 or 550 nm). How it is done: as §3, §1, §4, §5, §2
For a further data set, the system named is KG1 cells. Put plainly: KG1 cell viability, CellTiterGlo assay, 50 μM. It is filed as cell-based. As to conditions: 48 h; for effect on viability when preilluminated: preilluminated (380 or 550 nm). On the procedure:
as §3, §1, §4, §5
Viability of KG1 cells was determined with a CellTiter-Glo (Promega) assay, according to the manufacturer’s instructions. Briefly, 100 μL of CellTiter-Glo reagent was added to each well, the plates were kept at room temperature for 10 min, and the luminescence was recorded. Viability is expressed as a percentage with respect to the nontreated cells.
On the technique in general: In ATP-based viability assays light output follows the ATP content of the culture.

Data set [1] can be described thus: UV–vis spectra and optimal isomerization wavelengths. It is filed as physicochemical. As to conditions: for λcis (optimal wavelength trans to cis) / λtrans (optimal wavelength cis to trans): UV–vis at 25–50 μM in DMSO, Teleopto plates (Table 1). On the procedure:
Ultraviolet–visible (UV–vis) spectra were recorded using a Tecan Spark 20M Multimode Microplate reader. Samples (200 μL of compound solution/well) were prepared at […] in DMSO. Samples were measured between 300 and 800 nm with 2 nm fixed intervals in 96-well transparent plates. Illumination at different wavelengths was performed for 2 min using 96-well LED array plates (LEDA Teleopto) placed below the samples. […] Potencies were measured using a Thorlabs PM100D power energy meter connected with a standard photodiode power sensor (S120VC).

Data set [2] in a line: E/Z composition under light or temperature conditions by HPLC. The class given is physicochemical.
[3] abbreviates: dark vs 365 or 380 nm (Table 2), fold.
The mark [4] stands for this setting: dark, 1 h at room temperature (Table 2), read-out: IC50 dark.
Where [5] appears, read: illumination 365 or 380 nm, 1 h at room temperature (Table 2), read-out: IC50 light.
[6] abbreviates: preillumination 380 nm, 48 h, read-out: IC50 light (concentration that reduces cell viability by half).
[7] abbreviates: UV–vis spectra at 25–50 μM in DMSO (Table 1).
Setting [8] is: HPLC at isosbestic point (310–338 nm), 100 μM in DMSO after illumination with λcis (Table 1).
Where [9] appears, read: HPLC at isosbestic point (310–338 nm), 100 μM in DMSO after illumination with λtrans (Table 1).
The mark [10] stands for this setting: continuous illumination 550 nm (Table 4), read-out: IC50 light.
[11] abbreviates: dark (Table 4), read-out: IC50 dark.
Where [12] appears, read: preillumination 550 nm, 48 h, read-out: IC50 light (concentration that reduces cell viability by half).
Where [13] appears, read: UV–vis spectra at 25–100 μM in DMSO (Table 3).
Setting [14] is: HPLC at isosbestic point (290–336 nm), 100 μM in DMSO after illumination with λcis (Table 3).
Setting [15] is: HPLC at isosbestic point (290–336 nm), 100 μM in DMSO after illumination with λtrans (Table 3).

Like-named read-outs stand apart in the source and are kept apart here.

T1 sequence (Q13547 whole entry): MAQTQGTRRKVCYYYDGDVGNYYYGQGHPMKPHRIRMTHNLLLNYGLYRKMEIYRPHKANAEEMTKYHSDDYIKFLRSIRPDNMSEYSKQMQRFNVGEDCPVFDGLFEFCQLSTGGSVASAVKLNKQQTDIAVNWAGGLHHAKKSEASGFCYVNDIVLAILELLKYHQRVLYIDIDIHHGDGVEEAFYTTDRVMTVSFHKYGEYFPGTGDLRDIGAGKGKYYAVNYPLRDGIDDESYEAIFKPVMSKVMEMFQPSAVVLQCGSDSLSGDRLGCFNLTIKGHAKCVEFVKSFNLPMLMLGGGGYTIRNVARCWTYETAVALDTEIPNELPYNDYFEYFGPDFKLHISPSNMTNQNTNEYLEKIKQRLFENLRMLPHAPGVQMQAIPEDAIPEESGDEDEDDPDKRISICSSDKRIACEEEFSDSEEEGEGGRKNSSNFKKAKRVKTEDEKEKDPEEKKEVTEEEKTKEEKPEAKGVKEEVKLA

For the compound `COc1ccc(/N=N/c2ccc(/C=C/C(=O)Nc3ccccc3N)cc2)cc1` [Compound 11, (E)-N-(2-Aminophenyl)-3-(4-((E)-(4-methoxyphenyl)diazenyl)phenyl)acrylamide], the results for the “IC50(dark)/IC50(light)” value at human recombinant HDAC1 (setting [3]) and in the data set with HeLa cells were greater than 50 and greater than 8.3, respectively. For the same compound, the IC50 is greater than 10 µM on human recombinant HDAC1 (setting [4]), 0.2 µM at human recombinant HDAC1 (setting [5]) and 12 µM in the data set on HeLa cells (setting [6]). In addition, the “IC50 dark (concentration that reduces cell viability by half)” value with HeLa cells (dark, 48 h) is reported as “no activity”. In the data set on HeLa cells (48 h), the “viability decreasing to” value was 30%. Besides, the “effect on viability in the dark” value in the data set with HT29 cells, in the data set with MCF7 cells and in the data set on KG1 cells was “little or no effect” throughout. In addition, the “effect on viability when preilluminated” value in the data set with HT29 cells, in the data set with MCF7 cells and in the data set on KG1 cells was “significantly reduced the viability” each time. Further, the “stability after multiple cis/trans isomerization cycles” value in data set [1] (25 μM in DMSO, 380–550 nm cycles, 2 min each) is recorded as “stable”. Further, the “λcis (optimal wavelength trans to cis)” value in data set [1] is reported as 380 nm. In data set [1], the “λtrans (optimal wavelength cis to trans)” value was 550 nm. The λmax trans in data set [1] (setting [7]) was 378 nm. In addition, the “% cis at λcis” value in data set [2] (setting [8]) came out at 80%. In addition, the “% trans at λtrans” value in data set [2] (setting [9]) is 67%.
On to `COc1ccc(/N=N/c2ccc(/C=C/C(=O)Nc3cc(-c4cccs4)ccc3N)cc2)cc1` [Compound 20, (E)-N-(2-Amino-5-(thiophen-2-yl)phenyl)-3-(4-((E)-(4-methoxyphenyl)diazenyl)phenyl)acrylamide], for which the figures for the “IC50(dark)/IC50(light)” value at human recombinant HDAC1 (setting [3]) and in the data set with HeLa cells were greater than 29 and greater than 14, respectively. The IC50 on human recombinant HDAC1 (setting [4]) is greater than 10 µM; on human recombinant HDAC1 (setting [5]), 0.35 µM; in the data set on HeLa cells (setting [6]), 7.4 µM; in the data set on HeLa cells (preillumination, 24 h, read-out: IC50 (365 nm, 24 h)), 13 µM. For the same compound, the “IC50 dark (concentration that reduces cell viability by half)” value with HeLa cells (dark, 48 h) is reported as “no activity”. Moreover, the “viability decreasing to” value in the data set with HeLa cells (48 h) was determined as 30%. Besides, the “effect on viability in the dark” value in the data set on HT29 cells, in the data set on MCF7 cells and in the data set on KG1 cells was “little or no effect” throughout. For the same compound, the “effect on viability when preilluminated” value with HT29 cells, in the data set on MCF7 cells and in the data set with KG1 cells was “significantly reduced the viability” each time. Besides, the “λcis (optimal wavelength trans to cis)” value in data set [1] is 380 nm. Further, in data set [1], the “λtrans (optimal wavelength cis to trans)” value turned out to be 550 nm. Moreover, the λmax trans in data set [1] (setting [7]) is 378 nm. For the same compound, in data set [2] (setting [8]), the “% cis at λcis” value is 63%. Moreover, the “% trans at λtrans” value in data set [2] (setting [9]) was 82%.
On to `COc1cc(F)c(/N=N/c2c(F)cc(/C=C/C(=O)Nc3ccccc3N)cc2F)c(F)c1` [Compound 32a, (E)-N-(2-Aminophenyl)-3-(4-((E)-(2,6-difluoro-4-methoxyphenyl)diazenyl)-3,5-difluorophenyl)acrylamide], for which the “activity at the highest tested concentration in the dark” value on human recombinant HDAC1 (10 μM, dark) is on record as “no or little activity”. The figures for the “IC50(dark)/IC50(light)” value at human recombinant HDAC1 (Table 4) and in the data set on HeLa cells were greater than 5.0 and greater than 2.7, respectively. In addition, the “IC50 under illumination, in words” value at human recombinant HDAC1 (continuous illumination) was “low micromolar range”. Also, the figures for the IC50 at human recombinant HDAC1 (setting [10]), at human recombinant HDAC1 (setting [11]) and in the data set on HeLa cells (setting [12]) were 2 µM, greater than 10 µM and 37 µM, respectively. Also, in the data set with HeLa cells (in words), the “cell death under dark vs light conditions” value was “inducing cell death only under light conditions”. For the same compound, the “effect on viability in the dark” value with HT29 cells, in the data set with MCF7 cells and with KG1 cells was “little or no effect” each time. The “effect on viability when preilluminated” value with HT29 cells, in the data set with MCF7 cells and in the data set with KG1 cells was “significantly reduced the viability” throughout. The λcis in data set [1] (setting [13]) worked out at 550 nm. Also, the λmax cis in data set [1] (setting [13]) is given as 434 nm. The compound also had a λmax trans in data set [1] (setting [13]) of 358 nm. Also, the λtrans in data set [1] (setting [13]) is on record as 455 nm. Moreover, in data set [2] (setting [14]), the “% cis at λcis” value was 77%. Also, in data set [2] (setting [15]), the “% trans at λtrans” value came out at 74%.
With `COc1cc(F)c(/N=N/c2c(F)cc(/C=C/C(=O)NO)cc2F)c(F)c1` [Compound 39, (E)-3-(4-((E)-(2,6-Difluoro-4-methoxyphenyl)diazenyl)-3,5-difluorophenyl)-N-hydroxyacrylamide], the “IC50(dark)/IC50(light)” value on human recombinant HDAC1 (Table 4) is reported as 2.6; in the data set on HeLa cells it was 0.52. In addition, the IC50 on human recombinant HDAC1 (setting [10]) is 0.054 µM; at human recombinant HDAC1 (setting [11]), 0.14 µM; in the data set on HeLa cells (dark, 48 h, read-out: IC50 dark (concentration that reduces cell viability by half)) it was 6.7 µM; in the data set with HeLa cells (setting [12]) it was 13 µM. This compound also registered a λcis in data set [1] (setting [13]) of 550 nm. The λmax cis in data set [1] (setting [13]) is on record as 438 nm. In data set [1] (setting [13]), the λmax trans turned out to be 358 nm. In addition, in data set [1] (setting [13]), the λtrans is 455 nm. The “% cis at λcis” value in data set [2] (setting [14]) was determined as 72%. For the same compound, the “% trans at λtrans” value in data set [2] (setting [15]) is 83%.
